Experimental data from the supplement of paper PMC5579334.
± gives the standard deviation of the averaged measurements.

Tests used:
HS-PSS [1] = experiment: drug sensitivity score (DSS, CellTiter-Glo viability, 72 h) (DSS (dimensionless)); higher = more sensitive; extreme values may be limits of the assay
Procedure, shortened: (§1)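 After seeding 750–1000 cells per well of MPNST cell lines or primary human Schwann cells into 384-well plates preprinted with each compound at five concentrations in 10-fold steps, plates were kept 72 h at 37 °C, 5% CO2. Viability was read as CellTiter-Glo ATP luminescence relative to vehicle and positive-control wells, with duplicates averaged where present. The data were fitted with four-parameter logistic models. Drug sensitivity score and relative IC50, censored at the top concentration, derive from the fits, and percent inhibition refers to the top concentration.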

HS-Sch-2 [2] = experiment: as above
Procedure, shortened: as §1

[3] = test system: HSC1 (primary human Schwann cells); experiment: as above
Procedure, shortened: as §1

[4] = test system: HSC2 (primary human Schwann cells); experiment: as above
Procedure, shortened: as §1

S1507-2 [5] = experiment: as above
Procedure, shortened: as §1

S462 [6] = experiment: as above
Procedure, shortened: as §1

ST8814 [7] = experiment: as above
Procedure, shortened: as §1

STS26T [8] = experiment: as above
Procedure, shortened: as §1

YST-1 [9] = experiment: as above
Procedure, shortened: as §1

HS-PSS [10] = experiment: drug sensitivity score (DSS, CellTox-Green cytotoxicity, 72 h) (DSS (dimensionless)); higher = more cytotoxic; extreme values may be limits of the assay
Procedure, shortened: (§2)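 For 72 h at 37 °C, MPNST cell lines and primary human Schwann cells were exposed in 384-well plates to five 10-fold compound dilutions. CellTox-Green, added before seeding at a final 1:1000 dilution, gave fluorescence from DNA released by disrupted cells. Signals were scaled to vehicle and positive-control wells, cultures failing plate quality control were left out, and four-parameter logistic fits were applied. Relative IC50 and drug sensitivity score were derived from the fits, with IC50 censored at the top concentration.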

[11] = test system: HSC1 (primary human Schwann cells); experiment: as above
Procedure, shortened: as §2

[12] = test system: HSC2 (primary human Schwann cells); experiment: as above
Procedure, shortened: as §2

S1507-2 [13] = experiment: as above
Procedure, shortened: as §2

ST8814 [14] = experiment: as above
Procedure, shortened: as §2

STS26T [15] = experiment: as above
Procedure, shortened: as §2

HS-PSS [16] = experiment: % inhibition of CellTiter-Glo viability at highest tested concentration (72 h), relative to DMSO and benzethonium chloride controls; higher = more inhibition
Procedure, shortened: as §1

HS-Sch-2 [17] = experiment: as above
Procedure, shortened: as §1

[18] = test system: HSC1 (primary human Schwann cells); experiment: as above
Procedure, shortened: as §1

[19] = test system: HSC2 (primary human Schwann cells); experiment: as above
Procedure, shortened: as §1

S1507-2 [20] = experiment: as above
Procedure, shortened: as §1

S462 [21] = experiment: as above
Procedure, shortened: as §1

ST8814 [22] = experiment: as above
Procedure, shortened: as §1

STS26T [23] = experiment: as above
Procedure, shortened: as §1

YST-1 [24] = experiment: as above
Procedure, shortened: as §1

SMILES | drug sensitivity score (HS-PSS [1]) | drug sensitivity score (HS-Sch-2 [2]) | drug sensitivity score [3] | drug sensitivity score [4] | drug sensitivity score (S1507-2 [5]) | drug sensitivity score (S462 [6]) | drug sensitivity score (ST8814 [7]) | drug sensitivity score (STS26T [8]) | drug sensitivity score (YST-1 [9]) | drug sensitivity score (HS-PSS [10]) | drug sensitivity score [11] | drug sensitivity score [12] | drug sensitivity score (S1507-2 [13]) | drug sensitivity score (ST8814 [14]) | drug sensitivity score (STS26T [15]) | % inhibition (HS-PSS [16]) [%] | % inhibition (HS-Sch-2 [17]) [%] | % inhibition [18] [%] | % inhibition [19] [%] | % inhibition (S1507-2 [20]) [%] | % inhibition (S462 [21]) [%] | % inhibition (ST8814 [22]) [%] | % inhibition (STS26T [23]) [%] | % inhibition (YST-1 [24]) [%]
O=C1CCC(N2C(=O)c3ccccc3C2=O)C(=O)N1 (stereo not drawn) [Thalidomide] (max concentration tested 10000 nM) | 0 | 0.45 | 0 | 0 | 0.783 ± 1.1 | 0 | 0.0095 | 0 | 0 | 0 | 0 | 0 | 0 | 0 | 0 | 8.04 | 12.4 | 1.74 | 8.31 | 13 ± 12 | -8.98 ± 4.2 | 10.4 | 2.86 | 2.49
S=P(N1CC1)(N1CC1)N1CC1 [Thio-TEPA] (max concentration tested 50000 nM) | 0 | 0.99 | 0 | 0 | 0 | 0 | 0.888 | 0.888 | 0 | 0 | 0.888 | 0 | 0.0053 ± 0.0075 | 0 | 0 | 3.83 | 9.72 | 2.2 | 1.51 | -14.5 ± 2.9 | -14.47 ± 0.14 | -6.39 | -2.04 | 9.03
Nc1nc2[nH]cnc2c(=S)[nH]1 [Thioguanine] (max concentration tested 10000 nM) | 7.46 | 8.53 | 0.0001 | 0 | 4.38 ± 1.2 | 7.88 ± 0.29 | 10.7 | 10.6 | 8.84 | 0 | 0 | 0 | 0.992 ± 1.4 | 0.689 | 4.01 | 76.4 | 79.2 | 10.4 | -7.39 | 60.8 ± 2.1 | 74.5 ± 5.8 | 80.4 | 81 | 88.8
Cn1cncc1[C@@](N)(c1ccc(Cl)cc1)c1ccc2c(c1)c(-c1cccc(Cl)c1)cc(=O)n2C [Tipifarnib] (max concentration tested 10000 nM) | 5.39 | 7.08 | 6.55 | 8.8 | 14.3 ± 0.82 | 10.58 ± 0.032 | 8.98 | 14 | 13.9 | 0 | 0.209 | 0 | 0 | 0 | 9.1 | 46.5 | 78 | 69.7 | 66.7 | 64.095 ± 0.013 | 75.3 ± 2 | 59.9 | 87.3 | 73.1
O=C1NC(=O)[C@@H](c2cn3c4c(cccc24)CCC3)[C@@H]1c1c[nH]c2ccccc12 [Tivantinib] (max concentration tested 1000 nM) | 2.27 | 6 | 3.89 | 4.03 | 5.33 ± 1.5 | 5.15 ± 0.31 | 5 | 6.92 | 6.48 | 0.01 | 1.43 | 2.53 | 4.49 ± 1.2 | 4.59 | 7.73 | 36.1 | 82.9 | 62.9 | 60.3 | 80 ± 5.9 | 98.43 ± 0.21 | 93 | 98.2 | 78.2
COc1cc2nccc(Oc3ccc(NC(=O)Nc4cc(C)on4)c(Cl)c3)c2cc1OC [Tivozanib] (max concentration tested 10000 nM) | 2 | 2.18 | 5.86 | 6.35 | 10.5 ± 0.46 | 6.863 ± 0.013 | 0 | 3.66 | 4.22 | 0 | 0.17 | 0 | 0.631 ± 0.89 | 1.94 | 1.82 | 46.2 | 51.3 | 67.7 | 73.9 | 42.795 ± 0.006 | 58.9 ± 1.3 | 36.2 | 45.5 | 58.2
C[C@@H]1CCN(C(=O)CC#N)C[C@@H]1N(C)c1ncnc2[nH]ccc12 [Tofacitinib] (max concentration tested 5000 nM) | 0 | 0.89 | 3.18 | 1.53 | 0.398 ± 0.56 | 1.27 ± 0.56 | 0 | 0.0007 | 0.89 | 0 | 0 | 0 | 0.083 ± 0.12 | 0 | 0 | -4.37 | -3.98 | 11.7 | 25.1 | 0.251 ± 0.54 | 17.1 ± 3.5 | 6.57 | 10.4 | -2.9
